Measurements reported in US20090203726A1, “SUBSTITUTED TETRAHYDROQUINOLINES AS ANTIBACTERIAL AGENTS” (priority 2007, published 2009).
Like-named read-outs stand apart in the source and are kept apart here.

Columns and labels:
MurA (EPT E coli) = target: T1, MurA (EPT E coli) (Escherichia coli, UniProt P0A749); test: Kinetic IC50 assay of MurA inhibition (Malachite Green), EPT E coli; format: biochemical
T1 construct: made in house

MurA (EPT Y pestis) = MurA (EPT Y pestis) (Yersinia pestis, UniProt Q8ZB56); test: biochemical
[1] = MurA enzyme, E coli, values given as ranges, read-out: IC50 EPT E coli

Chain of MurA (EPT Y pestis) (Q8ZB56 whole entry, looked up): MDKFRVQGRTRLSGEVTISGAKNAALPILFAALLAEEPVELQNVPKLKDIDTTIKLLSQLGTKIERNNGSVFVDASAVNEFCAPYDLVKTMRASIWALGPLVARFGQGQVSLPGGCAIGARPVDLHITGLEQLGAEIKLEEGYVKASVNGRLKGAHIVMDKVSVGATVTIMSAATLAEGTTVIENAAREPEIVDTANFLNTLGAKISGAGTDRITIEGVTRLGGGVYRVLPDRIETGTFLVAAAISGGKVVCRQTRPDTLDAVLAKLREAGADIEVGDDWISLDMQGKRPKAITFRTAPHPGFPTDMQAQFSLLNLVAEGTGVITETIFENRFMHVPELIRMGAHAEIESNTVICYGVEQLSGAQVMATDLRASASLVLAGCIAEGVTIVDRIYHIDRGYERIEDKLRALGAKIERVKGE
T1 sequence (P0A749 whole entry): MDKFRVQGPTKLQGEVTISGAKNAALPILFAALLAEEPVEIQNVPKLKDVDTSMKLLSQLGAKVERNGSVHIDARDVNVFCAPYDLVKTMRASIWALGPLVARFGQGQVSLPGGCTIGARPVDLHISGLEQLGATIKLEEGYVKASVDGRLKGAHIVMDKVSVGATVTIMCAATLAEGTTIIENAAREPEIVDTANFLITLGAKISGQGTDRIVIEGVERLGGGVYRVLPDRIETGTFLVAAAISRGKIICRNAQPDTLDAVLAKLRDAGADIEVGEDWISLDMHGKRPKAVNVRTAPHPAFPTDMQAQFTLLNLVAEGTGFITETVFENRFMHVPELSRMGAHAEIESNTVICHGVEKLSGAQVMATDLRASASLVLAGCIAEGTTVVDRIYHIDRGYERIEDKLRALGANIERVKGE

Row | Structure (SMILES) | IC50 (MurA (EPT E coli); [1]) [µM] | IC50 (MurA (EPT Y pestis)) [µM] | IC50 (MurA (EPT E coli)) [µM]
1 | COc1ccc(-c2ccc(COc3cccc4c3NC(C(=O)O)C3CC=CC43)cc2)cc1 (stereo not drawn) [Compound 38] | > 200 | – | –
2 | O=C(O)C1Nc2ccc(F)c(Cl)c2C2C=CCC12 (stereo not drawn) [Compound 2] | > 200 | 10 to 30 | –
3 | O=C(Oc1ccc(-c2ccccc2)cc1)c1cc(Cl)cc2c1NC(C(=O)O)C1CC=CC21 (stereo not drawn) [Compound 40] | 30 to 50 | 5 to 15 | –
4 | COc1ccc(-c2ccc(OC(=O)c3cccc4c3NC(C(=O)O)C3CC=CC43)cc2)cc1 (stereo not drawn) [Compound 32] | 40 to 60 | 15 to 25 | –
5 | O=C(O)C1Nc2c(OCc3ccccc3)cccc2C2C=CCC12 (stereo not drawn) [Compound 29] | > 200 | – | –
6 | CN(C)C(=O)c1ccc(-c2ccc(OC(=O)c3cccc4c3NC(C(=O)O)C3CC=CC43)cc2)cc1 (stereo not drawn) [Compound 35] | > 200 | – | –
7 | O=C(O)C1Nc2cc(C(F)(F)F)ccc2C2C=CCC12 (stereo not drawn) [Compound 5] | 150 to 200 | 10 to 30 | –
8 | O=C(O)C1Nc2c(C(=O)N3CCN(c4ccccc4)CC3)cccc2C2C=CCC12 (stereo not drawn) [Compound 10] | > 200 | – | –
9 | O=C(Nc1ccc(Cl)cc1)c1cccc2c1NC(C(=O)O)C1CC=CC21 (stereo not drawn) [Compound 13] | > 200 | – | –
10 | Cc1ccc(OC(=O)c2cccc3c2NC(C(=O)O)C2CC=CC32)cc1 (stereo not drawn) [Compound 44] | 1 to 10 | 1 to 5 | –
11 | CN(C)C(=O)c1cccc2c1NC(C(=O)O)C1CC=CC21 (stereo not drawn) [Compound 4] | > 200 | 80 to 120 | –
12 | O=C(Oc1ccc(-c2ccccc2)cc1Cl)c1cccc2c1NC(C(=O)O)C1CC=CC21 (stereo not drawn) [Compound 21] | 30 to 50 | 5 to 15 | –
13 | COc1ccc(NC(=O)c2cccc3c2NC(C(=O)O)C2CC=CC32)cc1 (stereo not drawn) [Compound 14] | > 200 | – | –
14 | O=C(c1ccccc1)c1ccc(OC(=O)c2cccc3c2NC(C(=O)O)C2CC=CC32)cc1 (stereo not drawn) [Compound 41] | 120 to 140 | 70 to 80 | –
15 | O=C(Nc1ccccc1)c1cccc2c1NC(C(=O)O)C1CC=CC21 (stereo not drawn) [Compound 9] | > 200 | – | –
16 | CCOC(=O)C1Nc2c(C(=O)Nc3ccccc3)cccc2C2C=CCC12 (stereo not drawn) [Compound 8] | > 200 | – | –
17 | COc1ccc(OC(=O)c2cccc3c2NC(C(=O)O)C2CC=CC32)cc1 (stereo not drawn) [Compound 46] | 1 to 10 | – | –
18 | O=C(Oc1ccc(-c2ccc([N+](=O)[O-])cc2)cc1)c1cccc2c1NC(C(=O)O)C1CC=CC21 (stereo not drawn) [Compound 33] | 40 to 60 | 10 to 20 | –
19 | O=C(Oc1ccc(Cl)cc1)c1cccc2c1NC(C(=O)O)C1CC=CC21 (stereo not drawn) [Compound 45] | 160 to 180 | – | –
20 | Cc1ccc(OCc2cccc3c2NC(C(=O)O)C2CC=CC32)cc1 (stereo not drawn) [Compound 28] | > 200 | – | –
21 | COc1ccc(-c2ccc(N(Cc3cccc4c3NC(C(=O)O)C3CC=CC43)C(C)=O)cc2)cc1 (stereo not drawn) [Compound 50] | 150 to 170 | – | –
22 | CC(C)(C)c1ccc(OCc2cccc3c2NC(C(=O)O)C2CC=CC32)cc1 (stereo not drawn) [Compound 26] | > 200 | – | –
23 | O=C(Oc1ccccc1)c1cccc2c1NC(C(=O)O)C1CC=CC21 (stereo not drawn) [Compound 43] | 30 to 50 | – | –

Row | Structure (SMILES) | IC50 (MurA (EPT E coli); [1]) [µM] | IC50 (MurA (EPT Y pestis)) [µM] | IC50 (MurA (EPT E coli)) [µM]
24 | O=C(Oc1ccc(-c2ccc(O)cc2)cc1)c1cccc2c1NC(C(=O)O)C1CC=CC21 (stereo not drawn) [Compound 31] | 90 to 110 | 20 to 40 | –
25 | CC(C)(C)c1ccc(OC(=O)c2cccc3c2NC(C(=O)O)C2CC=CC32)cc1 (stereo not drawn) [Compound 47] | 10 to 20 | 5 to 15 | –
26 | O=C(Nc1ccc(-c2ccccc2)cc1)c1cccc2c1NC(C(=O)O)C1CC=CC21 (stereo not drawn) [Compound 15] | 50 to 100 | – | –
27 | N#Cc1ccc(-c2ccc(OC(=O)c3cccc4c3NC(C(=O)O)C3CC=CC43)cc2)cc1 (stereo not drawn) [Compound 24] | 40 to 60 | 20 to 30 | –
28 | O=C(O)C1Nc2c(COc3ccc(Cl)cc3)cccc2C2C=CCC12 (stereo not drawn) [Compound 27] | > 200 | – | –
29 | CC(=O)Nc1ccc2c(c1)C1C=CCC1C(C(=O)O)N2 (stereo not drawn) [Compound 6] | > 200 | 50 to 100 | –
30 | N#Cc1cc(COc2cccc3c2NC(C(=O)O)C2CC=CC32)ccc1-c1ccccc1 (stereo not drawn) [Compound 37] | > 200 | – | –
31 | CCOC(=O)C1Nc2c(C(=O)Oc3ccc(-c4ccc(C#N)cc4)cc3)cccc2C2C=CCC12 (stereo not drawn) [Compound 11] | > 200 | – | –
32 | O=C(O)C1Nc2ccc(F)cc2C2C=CCC12 (stereo not drawn) [Compound 1] | 5 to 20 | 20 to 40 | –
33 | O=C(Oc1ccc(Oc2ccccc2)cc1)c1cccc2c1NC(C(=O)O)C1CC=CC21 (stereo not drawn) [Compound 39] | 50 to 70 | 10 to 30 | –
34 | O=C(O)c1ccc2c(c1)C1C=CCC1C(C(=O)O)N2 (stereo not drawn) [Compound 3] | 2 to 40 | 10 to 30 | –
35 | O=C(Oc1ccc(-c2ccccc2)cc1Cl)c1cccc2c1NC(C(=O)O)C1CC3OC3C21 (stereo not drawn) [Compound 22] | 40 to 60 | 10 to 30 | –
36 | O=C(Oc1cc(Cl)cc(Cl)c1)c1cccc2c1NC(C(=O)O)C1CC=CC21 (stereo not drawn) [Compound 49] | 30 to 50 | 1 to 10 | –
37 | NC(=O)c1cccc2c1NC(C(=O)O)C1CC=CC21 (stereo not drawn) [Compound 7] | 5 to 20 | 20 to 40 | –
38 | O=C(Oc1ccc(-c2ccc(Cl)cc2)cc1)c1cccc2c1NC(C(=O)O)C1CC=CC21 (stereo not drawn) [Compound 34] | 60 to 80 | 1 to 10 | –
39 | CC(=O)N(c1ccccc1)c1ccc(OC(=O)c2cccc3c2NC(C(=O)O)C2CC=CC32)cc1 (stereo not drawn) [Compound 42] | 40 to 60 | – | –
40 | O=C(O)C1Nc2c(COc3ccccc3)cccc2C2C=CCC12 (stereo not drawn) [Compound 25] | > 200 | – | –
41 | O=C(Oc1ccc(-c2ccccc2)cc1[N+](=O)[O-])c1cccc2c1NC(C(=O)O)C1CC=CC21 (stereo not drawn) [Compound 23] | – | 10 to 20 | 30 to 50
42 | Cc1ccc(COc2cccc3c2NC(C(=O)O)C2CC=CC32)cc1 (stereo not drawn) [Compound 30] | > 200 | – | –
43 | O=C(Oc1ccc([N+](=O)[O-])cc1)c1cccc2c1NC(C(=O)O)C1CC=CC21 (stereo not drawn) [Compound 48] | – | – | 180 to 200
44 | O=C(O)C1Nc2c(COc3ccc(-c4ccccc4)cc3)cccc2C2C=CCC12 (stereo not drawn) [Compound 36] | > 200 | – | –
45 | CCOC(=O)C1Nc2c(C(=O)Oc3ccc(-c4cccc(C#N)c4)cc3)cccc2C2C=CCC12 (stereo not drawn) [Compound 12] | > 200 | – | –
